Source: patent US20210045385A1, “PYRIDAZINONE-SUBSTITUTED KETOXIMES AS HERBICIDES” (FMC Corporation, priority 2018, published 2021)

Assays:
Assay type in all cases: in vivo
[1] = test system: barnyardgrass (Echinochloa crus-galli); assay: Test B flooded paddy test, visual plant response rating; settings: 250 g ai/ha, Flood, applied to paddy water, 2-leaf stage, evaluated after 13 to 15 days
Summary of the method: (§1)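 Plants were raised to the 2-leaf stage, then pots were flooded to 3 cm above the soil and test compound was applied directly into the paddy water. Water depth was held for the whole test; after 13 to 15 days in a greenhouse, responses were scored visually against controls.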

[2] = test system: ducksalad (Heteranhera limosa); assay: as above; settings: 250 g ai/ha, Flood, applied to paddy water, 2-leaf stage, evaluated after 13 to 15 days
Summary of the method: as §1

rice (Oryza sativa) = assay: as above; settings: 250 g ai/ha, Flood, applied to paddy water, 2-leaf stage, evaluated after 13 to 15 days
Summary of the method: as §1

[3] = test system: sedge, umbrella (small-flower umbrella sedge, Cyperus difformis); assay: as above; settings: 250 g ai/ha, Flood, applied to paddy water, 2-leaf stage, evaluated after 13 to 15 days
Summary of the method: as §1

[4] = test system: barnyardgrass (Echinochloa crus-galli); assay: Test A postemergence, visual plant response rating; settings: for Barnyardgrass plant response rating (0 to 100 scale): 500 g ai/ha, postemergence, 0 is no effect, 100 is complete control; for Barnyardgrass plant response rating: Postemergence, 125 g ai/ha, 0 to 100 scale (0 no effect, 100 complete control)
Summary of the method: (§2)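 Preemergence: seeds in loam/sand blend given directed soil spray of compound in non-phytotoxic solvent with surfactant. Postemergence: plants 2–10 cm, one- to two-leaf stage, sprayed with same formulation. Visual injury rated vs untreated controls after ~10 days in greenhouse, 0 (no effect) to 100 (complete control).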

[5] = test system: galium (catchweed bedstraw, Galium aparine); assay: Test A postemergence, visual plant response rating; settings: for Galium plant response rating (0 to 100 scale): 500 g ai/ha, postemergence, 0 is no effect, 100 is complete control; for Galium plant response rating: Postemergence, 125 g ai/ha, 0 to 100 scale (0 no effect, 100 complete control)
Summary of the method: as §2

[6] = test system: foxtail, giant (giant foxtail, Setaria faberii); assay: Test A postemergence, visual plant response rating; settings: for Foxtail, Giant plant response rating (0 to 100 scale): 500 g ai/ha, postemergence, 0 is no effect, 100 is complete control; for Foxtail, Giant plant response rating: Postemergence, 125 g ai/ha, 0 to 100 scale (0 no effect, 100 complete control)
Summary of the method: as §2

[7] = test system: blackgrass (Alopecurus myosuroides); assay: Test A postemergence, visual plant response rating; settings: for Blackgrass plant response rating (0 to 100 scale): 500 g ai/ha, postemergence, 0 is no effect, 100 is complete control; for Blackgrass plant response rating: Postemergence, 125 g ai/ha, 0 to 100 scale (0 no effect, 100 complete control)
Summary of the method: as §2

[8] = test system: ragweed (common ragweed, Ambrosia elatior); assay: Test A postemergence, visual plant response rating; settings: for Ragweed plant response rating (0 to 100 scale): 500 g ai/ha, postemergence, 0 is no effect, 100 is complete control; for Ragweed plant response rating: Postemergence, 125 g ai/ha, 0 to 100 scale (0 no effect, 100 complete control)
Summary of the method: as §2

corn (Zea mays) = assay: Test A postemergence, visual plant response rating; settings: for Corn plant response rating (0 to 100 scale): 500 g ai/ha, postemergence, 0 is no effect, 100 is complete control; for Corn plant response rating: Postemergence, 125 g ai/ha, 0 to 100 scale (0 no effect, 100 complete control)
Summary of the method: as §2

[9] = test system: pigweed (Amaranthus retroflexus); assay: Test A postemergence, visual plant response rating; settings: for Pigweed plant response rating (0 to 100 scale): 500 g ai/ha, postemergence, 0 is no effect, 100 is complete control; for Pigweed plant response rating: Postemergence, 125 g ai/ha, 0 to 100 scale (0 no effect, 100 complete control)
Summary of the method: as §2

[10] = test system: Italian ryegrass (Lolium multiflorum); assay: Test A postemergence, visual plant response rating; settings: for Ryegrass, Italian plant response rating (0 to 100 scale): 500 g ai/ha, postemergence, 0 is no effect, 100 is complete control; for Ryegrass, Italian plant response rating: Postemergence, 125 g ai/ha, 0 to 100 scale (0 no effect, 100 complete control)
Summary of the method: as §2

[11] = test system: wheat (Triticum aestivum); assay: Test A postemergence, visual plant response rating; settings: for Wheat plant response rating (0 to 100 scale): 500 g ai/ha, postemergence, 0 is no effect, 100 is complete control; for Wheat plant response rating: Postemergence, 125 g ai/ha, 0 to 100 scale (0 no effect, 100 complete control)
Summary of the method: as §2

kochia (Kochia scoparia) [12] = assay: Test A postemergence, visual plant response rating; settings: for Kochia plant response rating (0 to 100 scale): 500 g ai/ha, postemergence, 0 is no effect, 100 is complete control; for Kochia plant response rating: Postemergence, 125 g ai/ha, 0 to 100 scale (0 no effect, 100 complete control)
Summary of the method: as §2

[13] = test system: barnyardgrass (Echinochloa crus-galli); assay: Test A preemergence, visual plant response rating; settings: for Barnyardgrass plant response rating: 125 g ai/ha, preemergence, 0 to 100 scale, 0 no effect, 100 complete control; for Barnyardgrass plant response rating (0 to 100 scale): approx. 10 days
Summary of the method: as §2

[14] = test system: foxtail, giant (giant foxtail, Setaria faberii); assay: Test A preemergence, visual plant response rating; settings: for Foxtail, Giant plant response rating: 125 g ai/ha, preemergence, 0 to 100 scale, 0 no effect, 100 complete control; for Foxtail, Giant plant response rating (0 to 100 scale): approx. 10 days
Summary of the method: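 Ratings 0–100 (100 = complete control), visual, vs untreated controls at ~10 days. Application pre- or postemergence; solvent mixture with surfactant; loam/sand medium.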

[15] = test system: ragweed (common ragweed, Ambrosia elatior); assay: Test A preemergence, visual plant response rating; settings: for Ragweed plant response rating: 125 g ai/ha, preemergence, 0 to 100 scale, 0 no effect, 100 complete control; for Ragweed plant response rating (0 to 100 scale): approx. 10 days
Summary of the method: as §2

[16] = test system: pigweed (Amaranthus retroflexus); assay: Test A preemergence, visual plant response rating; settings: for Pigweed plant response rating: 125 g ai/ha, preemergence, 0 to 100 scale, 0 no effect, 100 complete control; for Pigweed plant response rating (0 to 100 scale): approx. 10 days
Summary of the method: as §2

[17] = test system: Italian ryegrass (Lolium multiflorum); assay: Test A preemergence, visual plant response rating; settings: for Ryegrass, Italian plant response rating: 125 g ai/ha, preemergence, 0 to 100 scale, 0 no effect, 100 complete control; for Ryegrass, Italian plant response rating (0 to 100 scale): approx. 10 days
Summary of the method: as §2

kochia (Kochia scoparia) [18] = assay: Test A preemergence, visual plant response rating; settings: for Kochia plant response rating: 125 g ai/ha, preemergence, 0 to 100 scale, 0 no effect, 100 complete control; for Kochia plant response rating (0 to 100 scale): approx. 10 days
Summary of the method: as §2

Compound	Plant response rating, Barnyardgrass (0 to 100 scale, 0 is no effect, 100 is complete control) [1]	Plant response rating, Ducksalad (0 to 100 scale, 0 is no effect, 100 is complete control) [2]	Plant response rating, Rice (0 to 100 scale, 0 is no effect, 100 is complete control) (rice (Oryza sativa))	Plant response rating, Sedge, Umbrella (0 to 100 scale, 0 is no effect, 100 is complete control) [3]	Barnyardgrass plant response rating (0 to 100 scale) [4]	Barnyardgrass plant response rating [4]	Galium plant response rating (0 to 100 scale) [5]	Galium plant response rating [5]	Foxtail, Giant plant response rating (0 to 100 scale) [6]	Foxtail, Giant plant response rating [6]	Blackgrass plant response rating (0 to 100 scale) [7]	Blackgrass plant response rating [7]	Ragweed plant response rating (0 to 100 scale) [8]	Ragweed plant response rating [8]	Corn plant response rating (0 to 100 scale) (corn (Zea mays))	Corn plant response rating (corn (Zea mays))	Pigweed plant response rating (0 to 100 scale) [9]	Pigweed plant response rating [9]	Ryegrass, Italian plant response rating (0 to 100 scale) [10]	Ryegrass, Italian plant response rating [10]	other results
CCO/N=C(\c1c(O)c(C)nn(C)c1=O)c1ccc(F)c2ccccc12 [Compound 85]	0	0	0	0	80	50	90	80	80	70	100	90	100	90	30	10	90	80	100	90	Wheat plant response rating (0 to 100 scale) [11]: 50; Wheat plant response rating [11]: 40; Kochia plant response rating (0 to 100 scale) (kochia (Kochia scoparia) [12]): 90; Kochia plant response rating (kochia (Kochia scoparia) [12]): 70; Barnyardgrass plant response rating [13]: 70; Barnyardgrass plant response rating (0 to 100 scale) ([13]; 500 g ai/ha Preemergence): 90; Foxtail, Giant plant response rating [14]: 80; Foxtail, Giant plant response rating (0 to 100 scale) ([14]; 500 g ai/ha Preemergence): 100; Ragweed plant response rating [15]: 90; Ragweed plant response rating (0 to 100 scale) ([15]; 500 g ai/ha Preemergence): 100; Pigweed plant response rating [16]: 100; Pigweed plant response rating (0 to 100 scale) ([16]; 500 g ai/ha Preemergence): 100; Ryegrass, Italian plant response rating [17]: 100; Ryegrass, Italian plant response rating (0 to 100 scale) ([17]; 500 g ai/ha Preemergence): 100; Kochia plant response rating (kochia (Kochia scoparia) [18]): 10; Kochia plant response rating (0 to 100 scale) (kochia (Kochia scoparia) [18]; 500 g ai/ha Preemergence): 50
CO/N=C(/c1ccccc1C#N)c1c(O)c(C)nn(C)c1=O [Compound 77]	0	0	0	0	0	0	40	40	10	0	0	0	30	0	0	0	70	30	20	0	Wheat plant response rating (0 to 100 scale) [11]: 0; Wheat plant response rating [11]: 0; Kochia plant response rating (0 to 100 scale) (kochia (Kochia scoparia) [12]): 30; Kochia plant response rating (kochia (Kochia scoparia) [12]): 0; Barnyardgrass plant response rating [13]: 0; Barnyardgrass plant response rating (0 to 100 scale) ([13]; 500 g ai/ha Preemergence): 0; Foxtail, Giant plant response rating [14]: 0; Foxtail, Giant plant response rating (0 to 100 scale) ([14]; 500 g ai/ha Preemergence): 0; Ragweed plant response rating [15]: 10; Ragweed plant response rating (0 to 100 scale) ([15]; 500 g ai/ha Preemergence): 30; Pigweed plant response rating [16]: 0; Pigweed plant response rating (0 to 100 scale) ([16]; 500 g ai/ha Preemergence): 0; Ryegrass, Italian plant response rating [17]: 0; Ryegrass, Italian plant response rating (0 to 100 scale) ([17]; 500 g ai/ha Preemergence): 0; Kochia plant response rating (kochia (Kochia scoparia) [18]): 0; Kochia plant response rating (0 to 100 scale) (kochia (Kochia scoparia) [18]; 500 g ai/ha Preemergence): 0
C=CCn1nc(C)c(O)c(C(=NOC)c2cccc(Cl)c2)c1=O (mixture of isomers) [Compound 5]	0	0	0	0	30	10	0	0	10	0	50	10	0	0	0	0	0	0	30	0	Wheat plant response rating (0 to 100 scale) [11]: 0; Wheat plant response rating [11]: 0; Kochia plant response rating (0 to 100 scale) (kochia (Kochia scoparia) [12]): 0; Kochia plant response rating (kochia (Kochia scoparia) [12]): 0; Barnyardgrass plant response rating (0 to 100 scale) ([13]; 125 g ai/ha Preemergence): 20; Barnyardgrass plant response rating (0 to 100 scale) ([13]; 500 g ai/ha Preemergence): 70; Foxtail, Giant plant response rating (0 to 100 scale) ([14]; 125 g ai/ha Preemergence): 0; Foxtail, Giant plant response rating (0 to 100 scale) ([14]; 500 g ai/ha Preemergence): 10; Ragweed plant response rating (0 to 100 scale) ([15]; 125 g ai/ha Preemergence): 0; Ragweed plant response rating (0 to 100 scale) ([15]; 500 g ai/ha Preemergence): 0; Pigweed plant response rating (0 to 100 scale) ([16]; 125 g ai/ha Preemergence): 0; Pigweed plant response rating (0 to 100 scale) ([16]; 500 g ai/ha Preemergence): 0; Ryegrass, Italian plant response rating (0 to 100 scale) ([17]; 125 g ai/ha Preemergence): 0; Ryegrass, Italian plant response rating (0 to 100 scale) ([17]; 500 g ai/ha Preemergence): 20; Kochia plant response rating (0 to 100 scale) (kochia (Kochia scoparia) [18]; 125 g ai/ha Preemergence): 0; Kochia plant response rating (0 to 100 scale) (kochia (Kochia scoparia) [18]; 500 g ai/ha Preemergence): 0
